Test results: patent publication US9968606B2, “Deuterated compounds for treating cancer and related diseases and conditions, and compositions and methods thereof” (NeuForm Pharmaceuticals, Inc., priority 2015, dated 2018)
Read-outs that look alike come from different tables or passages of the source.

How the values were obtained:
wild-type EGFR = wild-type EGFR (Homo sapiens, UniProt P00533); details: reportedly; cited from earlier work
[1] = Reactivity as covalent inhibitor: half-life in buffered aqueous cysteine solution; details: for half-life: PBS buffer with cysteine, 37° C.; for Improvement (%) of t½ in cysteine solution: deuterated compound vs. reference osimertinib
Protocol: The combo solutions were prepared by mixing individual evaluated compounds with reference osimertinib. Then, they were added to PBS buffer solution with cysteine at 37° C. The stability time course samples (in triplicate) were taken and added to prechilled quenching solution and then store at −70° C. freezer. The samples were analyzed on a Waters Acquity UPLC system coupled with a Bruker Q-tof mass spectrometer. The peak areas of respective extracted ion chromatograms were used for relative comparison.

[2] = Drug metabolism and pharmacokinetic evaluation in human liver microsome suspensions (percentage of compound remaining vs. incubation time); format: in vitro ADME; details: human liver microsomes, NADPH, 37° C., after 4 hour, combo incubation with Osimertinib
Protocol: In vitro drug metabolism and pharmacokinetic evaluation of D16-Osimertinib, and D19-Osimertinib against Osimertinib was conducted in Human Liver Microsome suspensions. The stability time course samples were prepared in house and extracted immediately by protein precipitation method using MeCN containing 400 ng/mL carbutomide as the internal standard (IS). The samples were analyzed on a Waters Acquity UPLC system coupled with a Bruker Q-tof mass spectrometer. The peak areas of respective extracted ion chromatograms were used for relative comparison. The sample preparation was performed according to the following procedure: […] The samples were put in 37° C. incubator for 10 minutes. […] The samples were vortexed and centrifuged at 13,000 g for approximately 5 minutes, then supernatants were taken and stored in −20° C. freezer. The sampling at a time point was triplicate. After the last samples were taken and they were placed in −20° C. at least 1 hour. All samples were put into a refrigerator at approximate 4° C. for 30 minutes. The samples were vortexed. Then approximately 100 μL of the supernatants were transferred to corresponding wells of a 96-well plate. The samples were diluted with 100 μL of 0.1% FA in water. The samples were vortexed and briefly centrifuged for LC-HRMS analysis. Sample chamber for LC-HRMS was kept at approximate 4° C. […]

[3] = system: A431 human squamous carcinoma cells (WT EGFR); assay: Cell-based experiment on inhibition of WT-EGFR: cell proliferation of A431 cells
Excerpt: (§1) A431 cells are a model human cell line which express abnormally high levels of the wide-type epidermal growth factor receptor (WT EGFR). WT EGFR inhibitors can affect cell prolification of the cells. Similarly the prolification of HepG2 hepatoma cells can be inhibited by WT EGFR inhibitors.

HepG2 hepatoma cells = assay: Cell-based experiment on inhibition of WT-EGFR: cell proliferation of HepG2 hepatoma cells
Excerpt: as §1

[4] = Monkey pharmacokinetic study on deuteration of indole N-methyl group; format: in vivo; details: cynomolgus monkey, blood; male cynomolgus monkeys, single oral administration, 20 mg/Kg; read-out: AUC(0-t) of the parent
Protocol: A total of two (2) cynomolgus monkeys (male) were placed on study. Washout period lasted 7 days between two phases. Each test article was administered to an individual animal via a single oral administration for all groups. The dose levels were 20 mg/Kg. All animals were given detailed clinical examinations prior to administration, and no abnormality was observed. Cage side observation was conducted on all animals twice daily throughout the duration of administration. All animals were weighed before dosing on the day of administration. Blood samples were collected predose and postdose 0.25, 0.5, 1, 2, 3, 4, 6, 8, 12, 24, 36 and 48 h from the femoral vein at appropriate time points for analysis. These samples were analyzed by LC-MS/MS.

[5] = combo solution with osimertinib, read-out: Half-life in cysteine solution, Deuterated (t½ h) (converted)

Chain of wild-type EGFR (P00533 25-1210): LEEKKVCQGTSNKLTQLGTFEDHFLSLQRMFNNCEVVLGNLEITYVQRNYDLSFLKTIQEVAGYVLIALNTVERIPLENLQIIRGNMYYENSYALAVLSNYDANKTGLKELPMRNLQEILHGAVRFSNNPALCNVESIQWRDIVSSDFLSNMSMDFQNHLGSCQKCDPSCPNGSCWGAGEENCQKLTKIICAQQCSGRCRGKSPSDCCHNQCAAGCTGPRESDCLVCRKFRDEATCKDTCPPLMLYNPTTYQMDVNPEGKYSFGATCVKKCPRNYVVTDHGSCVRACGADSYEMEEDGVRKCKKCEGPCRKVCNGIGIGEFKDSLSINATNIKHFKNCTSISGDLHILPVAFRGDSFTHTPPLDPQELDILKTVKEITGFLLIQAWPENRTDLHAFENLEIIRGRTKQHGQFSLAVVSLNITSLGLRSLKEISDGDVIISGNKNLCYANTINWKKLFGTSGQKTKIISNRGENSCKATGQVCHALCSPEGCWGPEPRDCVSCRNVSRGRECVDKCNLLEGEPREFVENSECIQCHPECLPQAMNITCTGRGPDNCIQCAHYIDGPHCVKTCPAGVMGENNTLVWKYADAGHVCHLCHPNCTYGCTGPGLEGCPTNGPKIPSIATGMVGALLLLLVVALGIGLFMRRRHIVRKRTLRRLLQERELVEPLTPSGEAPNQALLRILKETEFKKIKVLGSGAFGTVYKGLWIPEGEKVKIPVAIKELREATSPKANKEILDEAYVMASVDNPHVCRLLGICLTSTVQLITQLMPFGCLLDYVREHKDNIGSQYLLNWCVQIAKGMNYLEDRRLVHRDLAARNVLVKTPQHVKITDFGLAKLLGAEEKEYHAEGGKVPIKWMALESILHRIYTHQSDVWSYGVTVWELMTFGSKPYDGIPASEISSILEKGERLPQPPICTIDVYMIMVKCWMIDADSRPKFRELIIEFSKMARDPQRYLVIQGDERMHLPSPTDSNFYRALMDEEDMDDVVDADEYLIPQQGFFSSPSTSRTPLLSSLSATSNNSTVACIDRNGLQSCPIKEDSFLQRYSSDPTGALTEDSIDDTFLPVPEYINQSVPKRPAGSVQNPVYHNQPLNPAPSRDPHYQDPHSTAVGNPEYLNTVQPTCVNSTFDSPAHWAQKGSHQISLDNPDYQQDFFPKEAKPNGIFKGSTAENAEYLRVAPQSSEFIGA

| Compound | half-life [1, 5] | difference between the concentrations of Osimertinib and the deuterated compound (percentage remaining) [2] | Improvement (%) of t½ in cysteine solution [1] | further results |
| --- | --- | --- | --- | --- |
| C=CC(=O)Nc1cc(Nc2nccc(-c3cn(C)c4ccccc34)n2)c(OC)cc1N(C)CCNC [AZ7550] | – | – | – | affinity towards wild-type EGFR (wild-type EGFR): low affinity towards wild-type EGFR |
| [2H]C([2H])=C([2H])C(=O)Nc1cc(Nc2nccc(-c3cn(C)c4ccccc34)n2)c(OC)cc1N(C)CCN(C)C [D3-osimertinib] | 4.05 h | – | 33% | – |
| C=CC(=O)Nc1cc(Nc2nccc(-c3cn(C)c4ccccc34)n2)c(OC)cc1N(C)CCN(C)C [Osimertinib, N-(2-{2-dimethylaminoethyl-methylamino}-4-methoxy-5-{[4-(1-methylindol-3-yl)pyrimidin-2-yl]amino}phenyl)prop-2-enamide] | – | – | – | cell viability [3]: did not affect the viability of cells; cell viability (HepG2 hepatoma cells): did not affect the viability of cells; AUC(0-t) [4]: 654 ng·h/mL; half-life ([1]; reference osimertinib in combo solution with the deuterated compound, read-out: Half-life in cysteine solution, Reference (t½ h) (converted)): 5.41 h |

Continued, in another order:

| half-life [1, 5] | difference between the concentrations of Osimertinib and the deuterated compound (percentage remaining) [2] | Compound | Improvement (%) of t½ in cysteine solution [1] | further results |
| --- | --- | --- | --- | --- |
| 4.56 h | – | [2H]C([2H])=C([2H])C(=O)Nc1cc(Nc2nccc(-c3cn(C([2H])([2H])[2H])c4ccccc34)n2)c(OC)cc1N(C)CCN(C)C [D6-osimertinib] | 23% | – |
| – | ~26% | [2H]C([2H])([2H])N(c1cc(OC)c(Nc2nccc(-c3cn(C([2H])([2H])[2H])c4ccccc34)n2)cc1NC(=O)C=C)C([2H])([2H])C([2H])([2H])N(C([2H])([2H])[2H])C([2H])([2H])[2H] [D16-osimertinib] | – | – |
| 2.75 h | ~28% | [2H]C([2H])=C([2H])C(=O)Nc1cc(Nc2nccc(-c3cn(C([2H])([2H])[2H])c4ccccc34)n2)c(OC)cc1N(C([2H])([2H])[2H])C([2H])([2H])C([2H])([2H])N(C([2H])([2H])[2H])C([2H])([2H])[2H] [D19-osimertinib] | 43% | – |
